Measured values: patent publication US10450295B2, “Method of using an indolinone molecule and derivatives for inhibiting liver fibrosis and hepatitis” (Acclaim BioMed USA LLC, priority 2013, dated 2019)
“Also recorded” adds a separate entry of the source.

Key:
collagen type III = assay: Immunofluorescent staining of HSC cultures, collagen type III; format: cell-based, human; conditions: 0.625 μM, 24-48 hours
Description: (§1) Human Hepatic Stellate cells (LX-2 cell line) (HSCs) were obtained from the Key Lab of Regenerative Medicine, Jinan University, Guangzhou, China, which were maintained in Dulbecco's Modified Eagle Medium (DMEM)+10% fetal calf serum and penicillin-streptomycin (100 unit/ml and 0.1 mg/ml, respectively), in 5% CO2 at 37° C. inside a humidified cell incubator. The culture medium was changed every three days. To test the effects of small molecule Hesperadin on the mouse and human HSCs, the cultures were treated with 0.625 μM of Hesperadin for 48 hrs. The cultures were then fixed in ice cold 70% ethanol and incubated in phosphate buffered saline with RNase (0.25 mg/ml), Propidium iodide dye (40 μg/ml) and 0.1% Triton X for an hour at room temperature. For cell cycle analysis, the Propidium iodide stained cells were examined using a flow cytometer (“BD LSRFortessa Cell Analyzer”). The proliferation of HSCs was also evaluated by the MTT staining assay with 3-(4,5-Dimethylthiazol-2-yl)-2,5-diphenyltetrazolium bromide). […] The absorbance (at 570 nm) was measured using a BIORAD 3550 Microplate Reader. […] After washing, the sections were viewed and recorded using a FluoView FV1000 Confocal microscope and/or a Nikon i80 microscope respectively to identify the presence of HSC expressing collagens. The positive staining of Collagen types I, III and IV was analyzed with the Metamorph software.

[1] = tested on: collagen 1A1 gene expression; assay: Real-time RT-PCR in HSC, collagen 1A1; format: cell-based, human; conditions: 0.625 μM, FIG. 7
Description: Human Hepatic Stellate cells (LX-2 cell line) (HSCs) were obtained from the Key Lab of Regenerative Medicine, Jinan University, Guangzhou, China, which were maintained in Dulbecco's Modified Eagle Medium (DMEM)+10% fetal calf serum and penicillin-streptomycin (100 unit/ml and 0.1 mg/ml, respectively), in 5% CO2 at 37° C. inside a humidified cell incubator. The culture medium was changed every three days. To test the effects of small molecule Hesperadin on the mouse and human HSCs, the cultures were treated with 0.625 μM of Hesperadin for 48 hrs. […] The proliferation of HSCs was also evaluated by the MTT staining assay with 3-(4,5-Dimethylthiazol-2-yl)-2,5-diphenyltetrazolium bromide). […] The absorbance (at 570 nm) was measured using a BIORAD 3550 Microplate Reader. […]
Collagen type-I, -III and -VI, MMP-2, MMP-9 and TIMP-1 gene expression was determined using quantitative real-time PCR. […] Quantitation of mRNA levels was performed using a SYBR® Premix Ex Taq™ Kit (Takara) in an Applied Biosystems 7900HT Fast Real-Time PCR System. To quantify the amount of specific mRNA in the samples, a standard curve was generated for each PCR run using four amounts of the cDNA synthesized from our HSC cultures and liver samples. […] Data was analyzed using a StatView software (Abacus Concepts Inc) with Student's t-test.

human Aurora B kinase = conditions: read-out: IC50 for the prevention of the phosphorylation of substrate; cited from earlier work
collagen type I = assay: Immunofluorescent staining of HSC cultures, collagen type I; format: cell-based, human; conditions: 0.625 μM, 24-48 hours
Description: as §1

[2] = tested on: Human Hepatic Stellate cells (LX-2 cell line); assay: MTT analysis of HSC proliferation; format: cell-based; conditions: serial dilutions, 48 hours
Description: (§2) Human Hepatic Stellate cells (LX-2 cell line) (HSCs) were obtained from the Key Lab of Regenerative Medicine, Jinan University, Guangzhou, China, which were maintained in Dulbecco's Modified Eagle Medium (DMEM)+10% fetal calf serum and penicillin-streptomycin (100 unit/ml and 0.1 mg/ml, respectively), in 5% CO2 at 37° C. inside a humidified cell incubator. The culture medium was changed every three days. To test the effects of small molecule Hesperadin on the mouse and human HSCs, the cultures were treated with 0.625 μM of Hesperadin for 48 hrs. The cultures were then fixed in ice cold 70% ethanol and incubated in phosphate buffered saline with RNase (0.25 mg/ml), Propidium iodide dye (40 μg/ml) and 0.1% Triton X for an hour at room temperature. For cell cycle analysis, the Propidium iodide stained cells were examined using a flow cytometer (“BD LSRFortessa Cell Analyzer”). The proliferation of HSCs was also evaluated by the MTT staining assay with 3-(4,5-Dimethylthiazol-2-yl)-2,5-diphenyltetrazolium bromide). HSCs were plated at 1×10^4 cells/ml and culture overnight. Hesperadin (in serial dilutions) was then added into the culture medium for 48 hours. This was followed by addition of MTT (250 μg/ml) for a further 4 hours. The medium was eluted and the formazan crystal was dissolved in 100 μL of DMSO. The absorbance (at 570 nm) was measured using a BIORAD 3550 Microplate Reader. […]

human HSC (LX-2) cells = assay: Cell cycle analysis by flow cytometry (propidium iodide); format: cell-based; conditions: 0.625 μM, vs control cultures
Description: as §2

## CCS(=O)(=O)Nc1ccc2c(c1)/C(=C(/Nc1ccc(CN3CCCCC3)cc1)c1ccccc1)C(=O)N2 [Hesperadin, (Z)—N-(2-oxo-3-(Phenyl(4-(piperidin-1-ylmethyl)phenylamino)methylene)indolin-5-yl)ethanesulfonamide]
Collagen type III
  collagen type III expression (immunofluorescence): significantly inhibited; also recorded: inhibits the synthesis of collagen type III
[1]
  Collagen 1A1 mRNA expression: confirmed by real-time RT-PCR analysis
Human Aurora B kinase
  IC50: 40 nM
Collagen type I
  collagen type I expression (immunofluorescence): significantly inhibited; also recorded: inhibits the synthesis of collagen type I
[2]
  HSC proliferation (MTT, optical density): inhibited HSC proliferation in a dose dependent manner; also recorded: suppressed HSC proliferation in a dose-dependent manner
Human HSC (LX-2) cells
  cell-cycle progression of HSCs: significantly more HSCs in the G2-M phase; also recorded: appeared to block cytokinesis
